Measured values reported in paper PMC11507441, “Oilseed Cakes: A Promising Source of Antioxidant, and Anti-Inflammatory Agents—Insights from Lactuca sativa” (International Journal of Molecular Sciences, 2024).
≈ marks a conversion by molar mass, not a printed value.

Legend:
[1] = Cytotoxic activity (MTT assay), normal cells; assay type: cell-based; conditions: human, WI-38 normal lung fibroblast cells; MTT; normal cells; read-out: In Vitro Cytotoxicity IC50 (µg/mL) WI-38
Protocol: (§1) The HPLC was performed in the Institute for Plant Biology, TU Braunschweig, using a Young Lin quaternary pump, vacuum degasser, column oven (40 °C), diode array detector (YL9160 PDA), and a Midas Spark Holland autosampler. UV spectra (λ max) were measured in the central laboratory of the Faculty of Pharmaceutical Science at Mansoura University using spectroscopic methanol with an ultraviolet-visible spectrophotometer (Shimadzu 1601 PC, version TCC-240A, Kyoto, Japan). The NMR unit of Mansoura University’s Faculty of Pharmacy obtained nuclear magnetic resonance spectra (^1H-NMR, ^13C-NMR, DEPT-Q, APT, HSQC, and HMBC) using a Bruker DRX 600 NMR spectrometer (600 and 150 MHz for ^1H and ^13C-NMR, respectively) and with the Bruker Corporation Avance III 400 spectrometer, which measures ^1H and ^13C-NMR at 400 and 100 MHz, respectively. The types of solvents that are used are CDCl3, CD3OD, and DMSO-d6. For normal phase chromatography, silica gel G 60–230 mesh (Merck, Darmstadt, Germany) was packed using a wet or dry method in the specified solvent. The purchase of Normal Human lung fibroblast (WI-38), hepatic cancer cell lines (HePG-2), and mammary gland (MCF-7) cell lines from ATCC was made possible by the Holding firm for biological goods and vaccines (VACSERA), which is based in Cairo, Egypt.
(§2) Using the MTT test, the inhibitory effects of substances on cell growth were ascertained using the cell lines compared to normal lung fibroblast cells (WI-38). The selectivity index was calculated via the Selectivity index (SI) equation: SI equals IC50 normal/IC50 cancer.

IL-1β = IL-1β in rat paw tissue homogenate (carrageenan model); assay type: in vivo; conditions: doses of 20 and 40 mg/kg; compared to the vehicle control group
Protocol: The levels of inflammatory mediators (IL-1β, TNF-α, and PGE2) in rat paw tissue homogenate were measured using the following Kits: Rat TNF-α (Tumor Necrosis Factor Alpha) ELISA Kit from Elabscience® Company, Houston, TX, USA, Interleukin 1 Beta (IL-1b) Organism Species: Rattus norvegicus (Rat) from Cloud Clone Crop Company and Rat PGE2 (Prostaglandin E2) ELISA Kit from Fine test® company Hubei, China. In addition, oxidative stress parameters in rat paw tissue homogenate were measured using superoxide dismutase, glutathione peroxidase, and catalase Kits from the Biodiagnostic company, Birmingham, UK.
Rats were slaughtered, and their paw tissues were gathered and weighed five hours after the carrageenan was administered. The tissues underwent processing after being fixed in 10% formalin. Rat paw tissue was homogenized, and its oxidative stress indices (SOD, CAT, and GPx) as well as the levels of inflammatory mediators (IL-1β, TNF-α, and PGE2) were measured.

MCF-7 cancer cell line = assay: Cytotoxic activity (MTT assay); assay type: cell-based
Protocol: as §1, §2

HepG-2 cancer cell line = assay: Cytotoxic activity (MTT assay); assay type: cell-based
Protocol: as §1, §2

[2] = IC50 normal (WI-38)/IC50 cancer

NC(CO)C(O)c1ccc2c(c1)OCO2 (stereo not drawn) [Compound 1, 1,3-propanediol-2-amino-1-(3′,4′-methylenedioxyphenyl)]
IC50 [1]: 61.7 ± 3.4 µg/mL (≈ 292 µM)
IL-1β level in paw tissue (IL-1β): significant reduction
IC50 (MCF-7 cancer cell line; Homo sapiens, MCF7, MTT, read-out: In Vitro Cytotoxicity IC50 (µg/mL) MCF-7): 86.8 ± 3.9 µg/mL (≈ 411 µM)
Selectivity Index MCF-7 (MCF-7 cancer cell line; [2]): 0.71
IC50 (HepG-2 cancer cell line; Homo sapiens, HepG2, MTT, read-out: In Vitro Cytotoxicity IC50 (µg/mL) HepG-2): 82.8 ± 4.1 µg/mL (≈ 392 µM)
Selectivity Index HepG2 (HepG-2 cancer cell line; [2]): 0.75
